Test results from US6555523B1, “Use of cirsiliol and derivatives to treat infections” (priority 1999, dated 2003).
Values after ≈ are worked out from the molar mass of the structure shown. Values joined by “and” are separate entries in the source; they are usually repeats but may differ in a detail not shown here. Identical values can stand only once.

Experiments:
[1] = in vitro; conditions: human
[2] = Human HCV clinical trial, one patient (HCV and HIV infected), naringin 4 g orally three times daily: bloodwork and urine values; format: in vivo; conditions: for Basophils: Day 0: 0; for Basophils / Eosinophils: ref. 0-5%; for Creatinine: Day 0: 0.5, ref. 0.5-1.2; for Eosinophils: Day 0: 1; for WBC: Day 0: 3.2, ref. 4-11 × 10^3; for RBC: Day 0: 4.7, ref. 3.9-5.1 × 10^6; for Monocytes: Day 0: 5, ref. 0-10%; for Hemoglobin: Day 0: 14, ref. 13.0-17.0; for Lymphocytes: Day 0: 29, ref. 15-50%; for MCH: Day 0: 30; for MCHC: Day 0: 34, ref. 32-36%; for Hematocrit: Day 0: 41.7, ref. 36-46%; for Glucose: Day 0: 76; for SGOT: Day 0: 83; for Platelet Count: Day 0: 96, ref. 150-400 × 10^3; for SGPT: Day 0: 112; for Specific Gravity: ref. 1.005-1.035; for pH: ref. 4.5-7.5; for Acetone, Urine / Bilirubin / Glucose, Urine / Leukocyte esterase / Nitrite / Occult Blood / Protein, Urine: ref. Negative
Description: (§1) Human HCV clinical trial. A human patient suffering from hepatitis C virus was treated according to the following regimen: initial dosing beginning on Day 0 (see Table C), three times daily, the patient ingested 4 g of naringin orally, and then drank hot tea; in later days, the patient ingested, three times daily, 4 g of naringin mixed in hot tea. This patient also suffered from HIV infection.
(§2) The tables below, labeled part 1 through part 4, show data from this patients' bloodwork on Day 0 (when treatment according to this invention was initiated), Day 3 (3 days after Day 0), Day 6 (6 days after Day 0) and Day 9 (9 days after Day 0). In addition, the tables include data from this patients' bloodwork 72 days before Day 0 (“Day −72”).

[3] = test system: parainfluenza HA-1; experiment: CPE-inhibition (microscopic) assay, Protocol A2; format: cell-based, parainfluenza virus; conditions: HEp-2, cell Hep2 (cell blank for 3-(4′-bromophenyl) coumarin)
[4] = test system: T, gondii RH; experiment: In-vitro anti Toxoplasma gondii activity in HFF, Protocol C; format: cell-based
Description: Protocol C—In-vitro testing of anti Toxoplasma gondii activity of Cirsiliol and Naringin. The compounds were tested in an in vitro cell culture assay utilizing human fibroblasts (HFF line) as the host cell. RH strain Toxoplasma gondii that has been transfected with β-galactosidase as a marker for quantitative detection of parasite number (RH Bgal), was used as the challenge organism. The compounds ere dissolved, and then diluted in cell culture medium at least 100 fold for the assays. Controls containing the maximum concentration of solvent used in the assay were run with each test. The active drugs were added and the monolayers were infected immediately at the beginning of each test. Extracellular T. gondii were removed by rinsing the monolayer, and infected host cells remained in contact with the cells for the entire test period. Each test was terminated when at least four parasite doublings could be visually identified in the control monolayers, and parasite numbers were quantitated by standard colorimetric assay for bet galactosidase activity with optical density at 550 nm as the readout. The optical density in this assay has a direct and linear correlation with parasite numbers over a 5-log parasite concentration. Toxicity in the host cells was determined by inspection for cytopathic effects and visual evaluation of cell growth.

[5] = Drug cytotoxicity by XTT in monocyte-macrophages, Protocol D2; format: cell-based; conditions: human; macrophage; D2; naringin solubilised in 35% EtOH; read-out: TC50
Description: Protocol D2—Assay in fresh human monocyte-macrophages. […] The cells are placed in a 96-well microtiter plate at 37° C. for 2 hours. Non-adherent cells are removed by vigorously washing six times. […] The cultures are carefully monitored for confluency during this incubation period. Infection of the cells is performed with monocytotropic HIV-1 isolates. […] Monocytemacrophage monolayers are infected at a multiplicity of infection (“MOI”) of 0.1.
(§3) At 2 days post-infection, the medium is decanted and the cultures washed twice with complete medium in order to remove excess virus. Fresh medium alone or medium containing the appropriate concentration of drug is added and incubation continued for an additional five days. XTT staining for cytotoxicity and HIV p24 ELISA assays for production of p24 core antigen are performed on Day 7 post infection. This is performed according the ELISA kit assay manufacturers recommendations. Control curves are generated in each assay to accurately quantitate the amount of capsid protein in each sample. Data is obtained by spectrophotometric analysis at 450 nm using a Molecular Devices Vmax plate reader. P24 concentrations are calculated form the optical density values by use of the Molecular Device software package Soft Max.

[6] = test system: HIV Ba-L; experiment: Anti-HIV assay in fresh human monocyte-macrophages (p24 ELISA), Protocol D2; format: cell-based; conditions: Human immunodeficiency virus 1, BAL, Macrophage
Description: Protocol D2—Assay in fresh human monocyte-macrophages. […] The cells are placed in a 96-well microtiter plate at 37° C. for 2 hours. Non-adherent cells are removed by vigorously washing six times. […] The cultures are carefully monitored for confluency during this incubation period. Infection of the cells is performed with monocytotropic HIV-1 isolates. High titer pools of each of these viruses are harvested from infected cultures of peripheral blood adherent cells and frozen in 1.0 ml aliquots at −80° C. Monocytemacrophage monolayers are infected at a multiplicity of infection (“MOI”) of 0.1.
as §3
Most of the values were based on average values that were obtained from duplicate or triplicate assay wells.

[7] = test system: hepatitis C virus; experiment: Human HCV clinical trial, one patient (HCV and HIV infected), naringin 4 g orally three times daily: hepatitis C RNA; format: in vivo; conditions: for Hepatitis C by PCR log 10: Day 0: 6.5; for Hepatitis C RNA ultraquant: Day 0: 2,871,300, ref. <200
Description: as §1, §2

[8] = test system: Bovine Viral Diarrhea Virus; experiment: Plaque formation by Bovine Viral Diarrhea Virus in MDBK cultures; format: cell-based, bovine viral diarrhea virus (BVDV); conditions: for Number of plaques: Tests 1-3, control 68; for % Reduction: plaques
Description: HCV in vitro assays. No well-accepted model exists for HCV and new compounds for use in the treatment of HCV are frequently tested for activity against bovine viral diarrhea virus (BVDV), a virus which is related to HCV.
A representative compound according to the present invention, naringin (i.e., 7-neohesperidoside, 5, 4′ dihydroxyflavanone) was tested for anti-BVDV activity in MDBK cells.

[9] = test system: MDBK cells; conditions: cattle
Description: As a comparison, similar tests were conducted using ribavirin.

With `C[C@@H]1O[C@@H](O[C@H]2[C@H](Oc3cc(O)c4c(c3)O[C@H](c3ccc(O)cc3)CC4=O)O[C@H](CO)[C@@H](O)[C@@H]2O)[C@H](O)[C@H](O)[C@H]1O` [Naringin, 7-neohesperidoside, 5, 4′ dihydroxyflavanone] the CC50 [1] was 100 µM, the Appearance ([2]; Day 3) was “Clear” and the Color ([2]; Day 3) was “Yellow”. The Basophils ([2]; Day 3) was 1%, the Creatinine ([2]; Day 3) was 0.5 mg/dL and the Eosinophils ([2]; Day 3) was 0%. The WBC ([2]; Day 3) was 3.3 × 10^3 /mm^3, the RBC ([2]; Day 3) was 4.71 × 10^6 /mm^3 and the Monocytes ([2]; Day 3) was 10%. It also gave a Hemoglobin ([2]; Day 3) of 13.9 g/dL, a Lymphocytes ([2]; Day 3) of 25% and an MCH ([2]; Day 3) of 30 picograms. It also gave an MCHC ([2]; Day 3) of 34%, a Hematocrit ([2]; Day 3) of 40.5% and a Glucose ([2]; Day 3) of 98 mg/dL. The SGOT ([2]; Day 3) was 62 u/L, the “Platelet Count” value ([2]; Day 3) was 104 × 10^3 /mm^3 and the SGPT ([2]; Day 3) was 102 u/L. For the same compound, the “Specific Gravity” value ([2]; Day 3) was 1.024, the pH ([2]; Day 3) was 5 and the “Acetone, Urine” value ([2]; Day 3) was “Negative”. For the same compound, the Bilirubin ([2]; Day 3) was “Negative”, the “Glucose, Urine” value ([2]; Day 3) was “Negative” and the Leukocyte esterase ([2]; Day 3) was “Negative”. For the same compound, the Nitrite ([2]; Day 3) was “Negative”, the “Occult Blood” value ([2]; Day 3) was “Negative” and the “Protein, Urine” value ([2]; Day 3) was “Negative”. The Appearance ([2]; Day 6) was “Clear”, the Basophils ([2]; Day 6) was 1% and the Creatinine ([2]; Day 6) was 0.5 mg/dL. For the same compound, the Eosinophils ([2]; Day 6) was 1%, the WBC ([2]; Day 6) was 3.4 × 10^3 /mm^3 and the RBC ([2]; Day 6) was 4.6 × 10^6 /mm^3. It also gave a Monocytes ([2]; Day 6) of 6%, a Hemoglobin ([2]; Day 6) of 13.7 g/dL and a Lymphocytes ([2]; Day 6) of 28%. The MCH ([2]; Day 6) was 30 picograms, the MCHC ([2]; Day 6) was 34% and the Hematocrit ([2]; Day 6) was 40.1%. For the same compound, the Glucose ([2]; Day 6) was 93 mg/dL, the SGOT ([2]; Day 6) was 38 u/L and the “Platelet Count” value ([2]; Day 6) was 112 × 10^3 /mm^3. The SGPT ([2]; Day 6) was 62 u/L, the “Specific Gravity” value ([2]; Day 6) was 1.017 and the pH ([2]; Day 6) was 6. For the same compound, the “Acetone, Urine” value ([2]; Day 6) was “Negative”, the Bilirubin ([2]; Day 6) was “Negative” and the “Glucose, Urine” value ([2]; Day 6) was “Negative”. The Leukocyte esterase ([2]; Day 6) was “Negative”, the Nitrite ([2]; Day 6) was “Negative” and the “Occult Blood” value ([2]; Day 6) was “Negative”. The “Protein, Urine” value ([2]; Day 6) was “Negative”, the “patient's SGOT values” ([2]; summary in words) was “drastic reduction” and the “patient's SGPT values” ([2]; summary in words) was “drastic reduction”. For the same compound, the IC50 [3] was 25 µM, the IC50 [4] was > 100 µM and the CC50 at 7 days [5] was > 100 µM. For the same compound, the IC50 ([6]; D2, naringin solubilised in 35% EtOH) was 86.2 µM, the IC50 ([6]; D2, naringin solubilised in 95% EtOH) was > 100 µM and the “Hepatitis C by PCR log 10” value ([7]; Day 3) was 6.2. The “Hepatitis C RNA ultraquant” value ([7]; Day 3) was 1,500,900 copies/mL, the “Hepatitis C by PCR log 10” value ([7]; Day 6) was 5.5 and the “Hepatitis C RNA ultraquant” value ([7]; Day 6) was 340,540 copies/mL. For the same compound, the “Hepatitis C by PCR log 10” value ([7]; Day 9) was 4.9, the “Hepatitis C RNA ultraquant” value ([7]; Day 9) was 78,592 copies/mL and the “patient's hepatitis C PCR values” ([7]; summary in words, Day 0 to Day 9) was “drastic reduction”. The ID50 ([8]; BVDV plaque formation in MDBK, table footnote, unit from the table's concentration head) was 631.39 µg/mL (≈ 1090 µM), the Number of plaques ([8]; naringin 31.25 μg/mL) was 65 and 75 and 60 and the Number of plaques ([8]; naringin 62.50 μg/mL) was 57 and 65. For the same compound, the Number of plaques ([8]; naringin 125.00 μg/mL) was 52 and 65 and 61, the Number of plaques ([8]; naringin 250.00 μg/mL) was 50 and 58 and 52 and the Number of plaques ([8]; naringin 500.00 μg/mL) was 32 and 45 and 42. For the same compound, the Number of plaques ([8]; naringin 1000.00 μg/mL) was 22 and 25 and 14, the Number of plaques ([8]; naringin 1500.00 μg/mL) was 8 and 11 and the Number of plaques ([8]; naringin 2000.00 μg/mL) was 4 and 3. For the same compound, the “% Reduction” value ([8]; naringin 31.25 μg/mL) was 2.39%, the “% Reduction” value ([8]; naringin 62.50 μg/mL) was 12.64% and the “% Reduction” value ([8]; naringin 125.00 μg/mL) was 13.12%. For the same compound, the “% Reduction” value ([8]; naringin 250.00 μg/mL) was 21.91%, the “% Reduction” value ([8]; naringin 500.00 μg/mL) was 41.92% and the “% Reduction” value ([8]; naringin 1000.00 μg/mL) was 70.22%. The “% Reduction” value ([8]; naringin 1500.00 μg/mL) was 86.82%, the “% Reduction” value ([8]; naringin 2000.00 μg/mL) was 95.11% and the “MTC (minimum cytotoxic drug concentration)” value [9] was > 2000 µg/mL.
